Test system: MV-4-11 cells
Assay: Gene expression microarray analysis (Affymetrix PrimeView) and GSEA
Assay type: cell-based, human
Parameters: RFU PODN (11730768_x_at) / Fold change /veh PODN (11730768_x_at) / RFU LINC00158 (11744669_a_at) / Fold change /veh LINC00158 (11744669_a_at) / RFU DUSP10 (11751237_a_at) / Fold change /veh DUSP10 (11751237_a_at) / RFU ID3 (11757404_x_at) / Fold change /veh ID3 (11757404_x_at) / RFU PLEKHG5 (11737974_s_at) / Fold change /veh PLEKHG5 (11737974_s_at) / RFU LRRC4B (11730491_at) / Fold change /veh LRRC4B (11730491_at) / RFU GIMAP4 (11747438_a_at) / Fold change /veh GIMAP4 (11747438_a_at) / RFU KRT8 (11758183_x_at) / Fold change /veh KRT8 (11758183_x_at) / RFU CNN1 (11734310_a_at) / Fold change /veh CNN1 (11734310_a_at) / RFU VPS37D (11726825_at) / Fold change /veh VPS37D (11726825_at) / RFU C10orf10 (11716522_x_at) / Fold change /veh C10orf10 (11716522_x_at) / RFU KIR2DL2 /// KIR2DL4 /// KIR2DL5A /// KIR2DL5B /// KIR2DS1 /// KIR2DS2 /// KIR2DS3 /// KIR2DS4 /// KIR3DL3 /// KIR3DL3 /// KIR3DS1 (11738374_at) / Fold change /veh KIR2DL2 /// KIR2DL4 /// KIR2DL5A /// KIR2DL5B /// KIR2DS1 /// KIR2DS2 /// KIR2DS3 /// KIR2DS4 /// KIR3DL3 /// KIR3DL3 /// KIR3DS1 (11738374_at) / RFU C1QL1 (11718748_at) / Fold change /veh C1QL1 (11718748_at) / RFU TMPRSS4 (11747572_a_at) / Fold change /veh TMPRSS4 (11747572_a_at) / RFU HAMP (11756126_x_at) / Fold change /veh HAMP (11756126_x_at) / RFU RNFT2 (11725882_a_at) / Fold change /veh RNFT2 (11725882_a_at) / RFU NR4A2 (11747474_a_at) / Fold change /veh NR4A2 (11747474_a_at) / RFU ABCC12 (11746883_a_at) / Fold change /veh ABCC12 (11746883_a_at) / RFU TMEM136 (11760407_x_at) / Fold change /veh TMEM136 (11760407_x_at) / RFU CLDN22 /// WWC2 (11732394_at) / Fold change /veh CLDN22 /// WWC2 (11732394_at) / RFU HLA-DPB1 (11760878_x_at) / Fold change /veh HLA-DPB1 (11760878_x_at) / RFU SPINT1 (11716480_a_at) / Fold change /veh SPINT1 (11716480_a_at) / RFU GAP43 (11754022_s_at) / Fold change /veh GAP43 (11754022_s_at) / RFU A4GNT (11735810_at) / Fold change /veh A4GNT (11735810_at) / RFU PRB3 (11715151_x_at) / Fold change /veh PRB3 (11715151_x_at) / RFU TUBB4B (11761932_at) / Fold change /veh TUBB4B (11761932_at) / RFU CAPN14 (11732068_a_at) / Fold change /veh CAPN14 (11732068_a_at) / RFU TMCC2 (11721928_a_at) / Fold change /veh TMCC2 (11721928_a_at) / RFU IRGQ (11745062_a_at) / Fold change /veh IRGQ (11745062_a_at) / RFU FAM174B (11720279_a_at) / Fold change /veh FAM174B (11720279_a_at) / RFU TMPRSS4 (11748680_a_at) / Fold change /veh TMPRSS4 (11748680_a_at) / RFU FAM212B (11763350_a_at) / Fold change /veh FAM212B (11763350_a_at) / RFU PLEKHG5 (11743358_a_at) / Fold change /veh PLEKHG5 (11743358_a_at) / RFU ZSCAN30 (11745921_a_at) / Fold change /veh ZSCAN30 (11745921_a_at) / RFU CMKLR1 (11741424_a_at) / Fold change /veh CMKLR1 (11741424_a_at) / RFU LOC101060620 /// MAPK8IP1 (11723275_at) / Fold change /veh LOC101060620 /// MAPK8IP1 (11723275_at) / RFU SPTSSB (11747773_x_at) / Fold change /veh SPTSSB (11747773_x_at) / RFU PRSS12 (11739890_at) / Fold change /veh PRSS12 (11739890_at) / RFU BIN1 (11741810_x_at) / Fold change /veh BIN1 (11741810_x_at) / RFU WNT11 (11732464_a_at) / Fold change /veh WNT11 (11732464_a_at) / RFU C10orf10 (11716521_a_at) / Fold change /veh C10orf10 (11716521_a_at) / RFU C5orf56 (11738089_at) / Fold change /veh C5orf56 (11738089_at) / RFU CYB561 (11721691_x_at) / Fold change /veh CYB561 (11721691_x_at) / RFU ANKRD19P (11752326_a_at) / Fold change /veh ANKRD19P (11752326_a_at) / RFU OR2T12 /// OR2T33 /// OR2T8 (11738714_s_at) / Fold change /veh OR2T12 /// OR2T33 /// OR2T8 (11738714_s_at) / RFU VCAN (11748164_a_at) / Fold change /veh VCAN (11748164_a_at) / RFU JSRP1 (11732532_at) / Fold change /veh JSRP1 (11732532_at) / RFU KRTAP10-11 (11738290_x_at) / Fold change /veh KRTAP10-11 (11738290_x_at) / RFU MYO3A (11730013_a_at) / Fold change /veh MYO3A (11730013_a_at) / RFU EBF3 (11725865_a_at) / Fold change /veh EBF3 (11725865_a_at) / RFU CAMK2N1 (11719241_x_at) / Fold change /veh CAMK2N1 (11719241_x_at) / RFU C5orf56 (11738088_a_at) / Fold change /veh C5orf56 (11738088_a_at) / RFU OLFML3 (11715873_a_at) / Fold change /veh OLFML3 (11715873_a_at) / RFU LOC100653217 /// NTM (11731650_a_at) / Fold change /veh LOC100653217 /// NTM (11731650_a_at) / RFU MAPK11 (11762145_a_at) / Fold change /veh MAPK11 (11762145_a_at) / RFU FIZ1 (11724087_x_at) / Fold change /veh FIZ1 (11724087_x_at) / RFU OASL (11726364_x_at) / Fold change /veh OASL (11726364_x_at) / RFU SOX15 (11748057_x_at) / Fold change /veh SOX15 (11748057_x_at) / RFU CD79A (11719716_a_at) / Fold change /veh CD79A (11719716_a_at) / RFU HIST1H1D (11736915_at) / Fold change /veh HIST1H1D (11736915_at) / RFU CASKIN2 (11723855_a_at) / Fold change /veh CASKIN2 (11723855_a_at) / RFU LOC730098 (11760151_x_at) / Fold change /veh LOC730098 (11760151_x_at) / RFU OR4N2 (11742367_at) / Fold change /veh OR4N2 (11742367_at) / RFU PRRT2 (11749266_a_at) / Fold change /veh PRRT2 (11749266_a_at) / RFU SNX32 (11753110_a_at) / Fold change /veh SNX32 (11753110_a_at) / RFU CDHR5 (11726645_a_at) / Fold change /veh CDHR5 (11726645_a_at) / RFU RCAN1 (11760418_a_at) / Fold change /veh RCAN1 (11760418_a_at) / RFU FAM167A (11723789_a_at) / Fold change /veh FAM167A (11723789_a_at) / RFU FAM26E (11764081_at) / Fold change /veh FAM26E (11764081_at) / RFU ISYNA1 (11749810_s_at) / Fold change /veh ISYNA1 (11749810_s_at) / RFU ACY1 (11761880_at) / Fold change /veh ACY1 (11761880_at) / RFU 11764098_at / Fold change /veh 11764098_at / RFU SAMD14 (11745864_x_at) / Fold change /veh SAMD14 (11745864_x_at) / RFU NPB (11741838_a_at) / Fold change /veh NPB (11741838_a_at) / RFU TMPRSS6 (11731388_a_at) / Fold change /veh TMPRSS6 (11731388_a_at) / RFU KRTAP10-2 (11738614_at) / Fold change /veh KRTAP10-2 (11738614_at) / RFU ARHGAP8 /// PRR5-ARHGAP8 (11727945_x_at) / Fold change /veh ARHGAP8 /// PRR5-ARHGAP8 (11727945_x_at) / RFU KRTAP5-7 /// NADSYN1 (11734609_at) / Fold change /veh KRTAP5-7 /// NADSYN1 (11734609_at) / RFU RASL12 (11751679_a_at) / Fold change /veh RASL12 (11751679_a_at) / RFU CDKN2B (11736163_a_at) / Fold change /veh CDKN2B (11736163_a_at) / RFU PRF1 (11729649_at) / Fold change /veh PRF1 (11729649_at) / RFU, ZNF638 /// ZNF638-IT1 / Fold change vs veh, ZNF638 /// ZNF638-IT1 / RFU, PANK3 / Fold change vs veh, PANK3 / RFU, SH3YL1 / Fold change vs veh, SH3YL1 / RFU, ZEB2 / Fold change vs veh, ZEB2 / RFU, NRIP1 / Fold change vs veh, NRIP1 / RFU, PTTG1IP / Fold change vs veh, PTTG1IP / RFU, CAPN2 / Fold change vs veh, CAPN2 / RFU, MED14 / Fold change vs veh, MED14 / RFU, SNORA58 / Fold change vs veh, SNORA58 / RFU, C1orf63 / Fold change vs veh, C1orf63 / RFU, LRRFIP1 / Fold change vs veh, LRRFIP1 / RFU, NDUFAF7 / Fold change vs veh, NDUFAF7 / RFU, SLC12A2 / Fold change vs veh, SLC12A2 / RFU, IBTK / Fold change vs veh, IBTK / RFU, ESF1 / Fold change vs veh, ESF1 / Fold change vs veh, TMEM50B / RFU, TAOK1 / Fold change vs veh, TAOK1 / RFU, ACBD3 / Fold change vs veh, ACBD3 / RFU, TMA16 / Fold change vs veh, TMA16 / RFU, RWDD3 / Fold change vs veh, RWDD3 / RFU, BCAT1 / Fold change vs veh, BCAT1 / RFU, EDEM3 / Fold change vs veh, EDEM3 / RFU, TMEM33 / Fold change vs veh, TMEM33 / RFU, WDR75 / Fold change vs veh, WDR75 / RFU, AHCTF1 / Fold change vs veh, AHCTF1 / RFU, TFRC / Fold change vs veh, TFRC / RFU, ZDHHC17 / Fold change vs veh, ZDHHC17 / RFU, NOM1 / Fold change vs veh, NOM1 / RFU, ARL8B / Fold change vs veh, ARL8B / RFU, ZBTB11 / Fold change vs veh, ZBTB11 / RFU, TAMM41 / Fold change vs veh, TAMM41 / RFU, KIAA1704 /// LOC100996395 / Fold change vs veh, KIAA1704 /// LOC100996395 / RFU, ING1 / Fold change vs veh, ING1 / RFU, TRMT61B / Fold change vs veh, TRMT61B / RFU, FUBP3 / Fold change vs veh, FUBP3 / RFU, TP53 / Fold change vs veh, TP53 / RFU, TNKS2 / Fold change vs veh, TNKS2 / RFU, ZFP14 / Fold change vs veh, ZFP14 / RFU, ACTR2 / Fold change vs veh, ACTR2 / RFU, PPP3R1 / Fold change vs veh, PPP3R1 / RFU, PIK3R1 / Fold change vs veh, PIK3R1 / RFU, HNRNPA1 / Fold change vs veh, HNRNPA1 / RFU, RNF170 / Fold change vs veh, RNF170 / RFU, ZNF28 / Fold change vs veh, ZNF28 / RFU, RNGTT / Fold change vs veh, RNGTT / RFU, OGT / Fold change vs veh, OGT / RFU, BRD1 / Fold change vs veh, BRD1 / RFU, MARS / Fold change vs veh, MARS / RFU, ZNF655 / Fold change vs veh, ZNF655 / RFU, FAHD1 / Fold change vs veh, FAHD1 / RFU, BDP1 / Fold change vs veh, BDP1 / RFU, LRRCC1 / Fold change vs veh, LRRCC1 / RFU, ARID1A / Fold change vs veh, ARID1A / RFU, ZNF146 / Fold change vs veh, ZNF146 / RFU, ZNF330 / Fold change vs veh, ZNF330 / RFU, GPN3 / Fold change vs veh, GPN3 / RFU, C9orf123 / Fold change vs veh, C9orf123 / RFU, N4BP2L2 / Fold change vs veh, N4BP2L2 / RFU, ARFIP1 / Fold change vs veh, ARFIP1 / RFU, FAM179B / Fold change vs veh, FAM179B / RFU, BCL10 / Fold change vs veh, BCL10 / RFU, UHRF1BP1L / Fold change vs veh, UHRF1BP1L / RFU, BET1 / Fold change vs veh, BET1 / RFU, CNOT2 / Fold change vs veh, CNOT2 / RFU, ZNF268 / Fold change vs veh, ZNF268 / Fold change vs veh, ZNF507 / RFU, DGCR2 / Fold change vs veh, DGCR2 / RFU, WDSUB1 / Fold change vs veh, WDSUB1 / Fold change vs veh, HSP90B1 /// MIR3652 / RFU, ADSS / Fold change vs veh, ADSS / RFU, GK / Fold change vs veh, GK / RFU, ZNF148 / Fold change vs veh, ZNF148 / RFU, TAF9 / Fold change vs veh, TAF9 / RFU, SLC1A5 / Fold change vs veh, SLC1A5 / RFU, SLMO2 / Fold change vs veh, SLMO2 / RFU, ABCC4 / Fold change vs veh, ABCC4 / RFU, LOC101060439 /// RAP1B / Fold change vs veh, LOC101060439 /// RAP1B / RFU, RFX7 / Fold change vs veh, RFX7 / RFU, GTPBP10 / Fold change vs veh, GTPBP10 / RFU, CNEP1R1 / Fold change vs veh, CNEP1R1 / RFU, BIVM-ERCC5 /// ERCC5 / Fold change vs veh, BIVM-ERCC5 /// ERCC5 / RFU, ILF3 / Fold change vs veh, ILF3 / RFU 11762660_at / Fold change /veh 11762660_at / RFU VCAN (11757783_s_at) / Fold change /veh VCAN (11757783_s_at) / RFU DDX43 (11728927_at) / Fold change /veh DDX43 (11728927_at) / RFU KRT8 (11758188_x_at) / Fold change /veh KRT8 (11758188_x_at) / RFU NKD1 (11759106_at) / Fold change /veh NKD1 (11759106_at) / RFU SRD5A1 (11742802_a_at) / Fold change /veh SRD5A1 (11742802_a_at) / RFU TPSAB1 /// TPSB2 (11721975_s_at) / Fold change /veh TPSAB1 /// TPSB2 (11721975_s_at) / RFU GSTM3 (11746129_a_at) / Fold change /veh GSTM3 (11746129_a_at) / RFU IL23R (11737362_x_at) / Fold change /veh IL23R (11737362_x_at) / RFU TMEM51 (11727254_a_at) / Fold change /veh TMEM51 (11727254_a_at) / RFU PIWIL2 (11732686_x_at) / Fold change /veh PIWIL2 (11732686_x_at) / RFU ORM1 (11744905_x_at) / Fold change /veh ORM1 (11744905_x_at) / RFU CCDC152 (11743942_at) / Fold change /veh CCDC152 (11743942_at) / RFU ECM1 (11717891_a_at) / Fold change /veh ECM1 (11717891_a_at) / RFU IL23R (11748794_a_at) / Fold change /veh IL23R (11748794_a_at) / RFU TNFAIP8L3 (11732012_x_at) / Fold change /veh TNFAIP8L3 (11732012_x_at) / RFU MBOAT4 (11741988_at) / Fold change /veh MBOAT4 (11741988_at) / RFU 11764193_at / Fold change /veh 11764193_at / RFU TMEM53 (11763286_at) / Fold change /veh TMEM53 (11763286_at) / RFU MAGEB2 (11727129_at) / Fold change /veh MAGEB2 (11727129_at) / RFU TMEM200A (11744735_a_at) / Fold change /veh TMEM200A (11744735_a_at) / RFU CCDC152 (11751479_a_at) / Fold change /veh CCDC152 (11751479_a_at) / RFU FAM211A (11726209_a_at) / Fold change /veh FAM211A (11726209_a_at) / RFU RGS16 (11746705_a_at) / Fold change /veh RGS16 (11746705_a_at) / RFU VCAN (11755009_s_at) / Fold change /veh VCAN (11755009_s_at) / RFU RHOB (11743442_s_at) / Fold change /veh RHOB (11743442_s_at) / RFU RGS16 (11720943_a_at) / Fold change /veh RGS16 (11720943_a_at) / RFU RGS16 (11720944_at) / Fold change /veh RGS16 (11720944_at) / RFU, VPS4B / Fold change vs veh, VPS4B / RFU, CREB1 / Fold change vs veh, CREB1 / RFU, DNAJC13 / Fold change vs veh, DNAJC13 / RFU, GNAQ / Fold change vs veh, GNAQ / RFU, CDK5R1 / Fold change vs veh, CDK5R1 / RFU, ZRANB3 / Fold change vs veh, ZRANB3 / RFU, CUL4A / Fold change vs veh, CUL4A / RFU, CCNY / Fold change vs veh, CCNY / RFU, UFL1 / Fold change vs veh, UFL1 / RFU, COG3 / Fold change vs veh, COG3 / RFU, DIAPH2 / Fold change vs veh, DIAPH2 / RFU, SKA2 / Fold change vs veh, SKA2 / RFU, AFF3 / Fold change vs veh, AFF3 / RFU, LMF1 / Fold change vs veh, LMF1 / RFU, IPO11 / Fold change vs veh, IPO11 / RFU, DFFB / Fold change vs veh, DFFB / RFU, FOXP1 / Fold change vs veh, FOXP1 / RFU, CARD8 / Fold change vs veh, CARD8 / RFU, STRN3 / Fold change vs veh, STRN3 / RFU, ADK / Fold change vs veh, ADK / RFU, RASSF2 / Fold change vs veh, RASSF2 / RFU, WIPF1 / Fold change vs veh, WIPF1 / RFU, LARP1B / Fold change vs veh, LARP1B / RFU, RASA1 / Fold change vs veh, RASA1 / RFU, RB1 / Fold change vs veh, RB1 / RFU, PPFIA1 / Fold change vs veh, PPFIA1 / RFU, MAT2A / Fold change vs veh, MAT2A / RFU, CCT5 / Fold change vs veh, CCT5 / RFU, WDR92 / Fold change vs veh, WDR92 / RFU, CUX1 / Fold change vs veh, CUX1 / RFU, TTC7A / Fold change vs veh, TTC7A / RFU, TMEM135 / Fold change vs veh, TMEM135 / RFU, DEPTOR / Fold change vs veh, DEPTOR / RFU, CPM / Fold change vs veh, CPM / RFU, DNAJB6 / Fold change vs veh, DNAJB6 / RFU, CACNA2D3 / Fold change vs veh, CACNA2D3 / RFU, DTX4 / Fold change vs veh, DTX4 / RFU, TFCP2 / Fold change vs veh, TFCP2 / RFU, GMCL1 /// GMCL1P1 / Fold change vs veh, GMCL1 /// GMCL1P1 / RFU, AEBP2 / Fold change vs veh, AEBP2 / RFU, SNHG1 /// SNORD22 /// SNORD25 /// SNORD26 /// SNORD27 /// SNORD28 /// SNORD29 /// SNORD31 / Fold change vs veh, SNHG1 /// SNORD22 /// SNORD25 /// SNORD26 /// SNORD27 /// SNORD28 /// SNORD29 /// SNORD31 / Fold change (Aza/veh), C12orf56 (ProbeSet 11735607_a_at) / Fold change (ACY-1035/veh), C12orf56 (ProbeSet 11735607_a_at) / Fold change (Aza/veh), FGFR1OP (ProbeSet 11751329_s_at) / Fold change (ACY-1035/veh), FGFR1OP (ProbeSet 11751329_s_at) / Fold change (Aza/veh), VPS36 (ProbeSet 11739960_a_at) / Fold change (ACY-1035/veh), VPS36 (ProbeSet 11739960_a_at) / RFU SYPL1 (11715823_x_at) / Fold change /veh SYPL1 (11715823_x_at) / RFU IGFBP7 (11715501_s_at) / Fold change /veh IGFBP7 (11715501_s_at) / RFU REEP3 (11722064_at) / Fold change /veh REEP3 (11722064_at) / RFU IGLL1 (11728026_x_at) / Fold change /veh IGLL1 (11728026_x_at): dose or concentration left out as unconfirmed
Conditions: ProbeSet 11721559_s_at; LIST B

## Nc1ncn([C@@H]2O[C@H](CO)[C@@H](O)[C@H]2O)c(=O)n1 [azacitidine]
  Fold change vs veh, ZNF638 /// ZNF638-IT1: 0.91
